Data on two compounds can be found in patent US6602905B1, “N-acyl homoserine lactones for the treatment of cardiac tachyarrhythmias, ischaemic heart disease or congestive heart failure” (The University of Nottingham, priority 1999, dated 2003).

Test [1] has as its system Male rats (Long Evans). Put plainly: Cardiovascular variables in conscious rats after cardiac autonomic blockade with atenolol + atropine. The format is in vivo, rat. The settings on record: 10 mg per kg i.v. after earlier administration of atenolol and atropine. How it is done:
(§1) Male rats (Long Evans) of body mass in the range of from 350 to 450 g were used in the experiments.
(§2) The rats were instrumented with probes to monitor blood flow in renal, mesenteric and hindquarters vascular beds and with catheters to measure blood pressure and heart rate and to administer substances intravenously.
(§3) Measurements of the cardiovascular variables were made in the test rats which were conscious and able to move freely during the duration of the test procedure (10 minutes). The raw data were sampled (every 2 ms), averages were calculated (per cardiac cycle) and the data was stored to diskette (every 5 s). The stored data was analysed off line.
The following substances were administered intravenously to the test rats.
1) As in 2) in Experiment I above (∘)
2) Atenolol +atropine then as in 2) in Experiment I above (●).

Test [2] relates to Male rats (Long Evans). Put plainly: Cardiovascular variables in conscious, freely moving instrumented rats after intravenous injection. It counts as in vivo, rat. The note with it: vs vehicle; for effect on the heart rate / effect on the mean arterial blood pressure: 10 mg per kg body weight i.v. in acetonitrile/dextrose. How it is done:
as §1, §2, §3
The following substances were administered by intravenous injection to the test rats.
1) vehicle only (100 μl of 50:50 acetonitrile:dextrose)
2) 10 mg per kg body weight of N-(3-oxododecanoyl)homoserine lactone (OdDHL; Formula I; n=2, Y=X=O, R=3-oxododecanoyl). The OdDHL was dissolved in acetonitrile/dextrose (50 μl:50 μl) 100 μl.
3) vehicle only (100 μl of 50:50 acetonitrile:dextrose)
4) 10 mg per kg body weight of N-(3-oxoundecanoyl)homoserine lactone (OuDHL; Formula I; n=2, Y=X=O, R=3-oxoundecanoyl).
The OuDHL was dissolved in acetonitrile/dextrose (50 μl:50 μl) 100 μl.

As to `CCCCCCCCCC(=O)CC(=O)N[C@H]1CCOC1=O` [OdDHL, N-(3-oxododecanoyl)homoserine lactone], in the test on Male rats (Long Evans) [1], the “bradycardia (heart rate) after cardiac autonomic blockade” value is recorded as “not observed”. Moreover, in the test with Male rats (Long Evans) [2], the “effect on the heart rate” value is on record as “profound bradycardia” and the “effect on the mean arterial blood pressure” value is “substantially no change”. For the same compound, the “blood flow, particularly in the mesenteric and hindquarters” value in the test on Male rats (Long Evans) [2] (10 mg per kg body weight i.v.) is “reduced”.

In the case of `CCCCCCCCC(=O)CC(=O)NC1CCOC1=O` (stereo not drawn) [OuDHL, N-(3-oxoundecanoyl)homoserine lactone], in the test on Male rats (Long Evans) [2], the “effect on the heart rate” value is “marked bradycardia” and the “effect on the mean arterial blood pressure” value is given as “substantially no change”.
